Patent publication US5852005A, “Tetracyclic triterpenes” (Novartis AG, priority 1994, dated 1998)
Converted amounts (≈) assume the structure as drawn. Where two headings read alike, the source gives them in different places.

What was measured:
Jurkat cells = experiment: Cytotoxic and cytostatic activity using transformed human T-cell line (Jurkat); type: cell-based; details: Table 5
Description: 2. Cytotoxic and cytostatic activity using a transformed human T-cell line (Jurkat)
5×10^4 Jurkat cells are grown in a final volume of 0.2 ml for 72 hours after which the cell numbers are enumerated by use of an enzymatic assay using p-nitrophenyl-N-acetyl-β-D-glucosamindle as substrate. Test compounds are added at varying concentration at the start of culture and cytotoxicity compared with untreated controls.

P-815 mastocytoma cells = experiment: Cytotoxic and cytostatic activity in vitro using the P-815 mastocytoma cell line; type: cell-based; details: Table 5
Description: (§1) Fractions are dissolved in ethanol and tested in the Mishell-Dutton assay (primary humoral immune-response to SRBC in vitro, MD) a mixed lymphocyte reaction (MLR) and on the P-815 mastocytoma cell line for cytotoxicity.

[1] = system: Spleen cells (proliferative response of lymphocytes to allogenic stimulation); experiment: Two-way MLR (Murine Mixed Lymphocyte Reaction); type: cell-based, mouse (Balb/c, CBA); details: Table 5
Description: 1. Proliferative Response Of Lymphocytes to Allogenic Stimulation
Two-way MLR (Murine Mixed Lymphocyte Reaction)
Spleen cells (0.5×106) from Balb/c mice (female, 8-10 weeks) are co-incubated for 5 .sctn.days with 0.5×10^6 spleen cells from CBA mice (female, 8-10 weeks). The allogenic cells induce a proliferative response in the responder spleen cell population which is measured by labelled precursor incorporation into the DNA. Test compounds are added at the start of incubation at varying concentrations and proliferative response compared with untreated controls.
as §1

[2] = system: systemic lupus erythematosus (disease onset); experiment: Systemic lupus erythematosus (SLE) in the mouse (NZB/NZW); type: in vivo, mouse (NZB/NZW F1); details: po, read-out: TEST 10 (SLE) ED100
Description: 10. Systemic lupus erythematosus (SLE) in the mouse (NZB/NZW)
Female New Zealand black/white (NZB/NZW) F1 mice spontaneously develop characteristics that resemble systemic lupus erythematosus. […] Treatment starts at 24 weeks of age when animals show proteinurea. Compounds are administered p.o. 3 times a week for a total of 12 weeks. Status is determined every second week and animals are sent for histological evaluation at termination of the experiment Ten mice are used per group.

[3] = system: DTH reaction (footpad swelling); experiment: DTH (delayed-type hypersensitivity) induced by SRBC-TH cells; type: in vivo, mouse (C57 BL/6); details: Mus musculus, po, 24 h, read-out: TEST 9 (DTH) ED50
Description: 50 μl of the SRBC cell suspension (diluted 1:1 v/v with PBS) is injected s.c. into the left hind footpad (to measure non specific increase in footpad swelling due to the injection procedure). Right and left hind footpad thickness is measured 24 hours later.

[4] = system: GvH reaction (popliteal lymph node weight); experiment: Localised Graft-versus-Host (GvH) Reaction in the rat; type: in vivo; details: up to about 100× more active than corresponding 17β-epimers
Description: 4. Localised Graft-versus-Host (GvH) Reaction in the rat
Spleen cells (1×10^7) from 6 week old female Wistar/Furth (WE) rats are injected subcutaneously on day 0 into the left hind-paw of female (F344×WF)F1 rats weighing about 100 g. Animals are treated for 4 consecutive days and the popliteal lymph nodes are removed and weighed on day 7. The difference in weight between the two lymph nodes is taken as the parameter for evaluating the reaction. Test compounds are administered daily for 4 days at varying dosage p.o. and inhibition compared with untreated controls. Dammara compounds are active (inhibit GvH reaction) in this test model at doses of the order of from 10 μg to 10 mg/kg/day p.o..

Row | Structure (SMILES) | IC50 Jurkat (Jurkat cells) [µg/mL] | IC50 P-815 (P-815 mastocytoma cells) [µg/mL] | IC50 MLR [1] [µg/mL] | IC50 (Jurkat cells; Homo sapiens, Jurkat) [µg/mL] | IC50 (P-815 mastocytoma cells; Mus musculus, P815) [µg/mL] | ED100 ([2]; one trial run) [mg/kg] | ED50 ([3]; one trial run) [mg/kg] | IC50 ([1]; Mus musculus, Lymphocyte) [µg/mL] | activity relative to corresponding 17β-epimers [4] | ED100 [2] [mg/kg] | ED50 [3] [mg/kg]
1 | COc1cc([C@@H]2c3cc4c(cc3C[C@H]3COC(=O)[C@@H]32)OCO4)cc(OC)c1OC [Silicicolin, reference compound] | 0.0025 (≈ 6.27 nM) | 0.004 (≈ 10 nM) | 0.002 (≈ 5.02 nM) | – | – | – | – | – | – | – | –
2 | C=C(C/C=C/C(C)(C)O)[C@@H]1CC[C@]2(C)[C@@H]1CC[C@@H]1[C@@]3(C)CC[C@H](O)C(C)(C)[C@@H]3CC[C@]12C [compound of formula IC, (17α)-23-(E)-dammara-20,23-diene-3β,25-diol] | – | – | 0.011 | > 5 | > 5 | 0.01 | 0.004 | 0.0105 | up to 100 × | – | –
3 | C=C(C/C=C/C(C)(C)O)[C@H]1CC[C@]2(C)[C@@H]1CC[C@@H]1[C@@]3(C)CC[C@H](O)C(C)(C)[C@@H]3CC[C@]12C [β-EPIMER OF IC, (17β)-23-(E)-dammara-20,23-dien-3β,25-diol] | – | – | – | – | – | – | – | – | – | 10 | 10
